In general, IC50 refers to the concentration that inhibits the measured activity by half. As a reminder, the MIC is the smallest concentration in the dilution series that meets the test's criterion for growth inhibition.

Experiment [1] has as its system Sporothrix schenckii. Briefly: Antifungal activity against Sporothrix schenckii by broth microdilution technique. In kind it is functional, organism-based.
Experiment [2] has as its system Staphylococcus aureus. Briefly: Antibacterial activity against Staphylococcus aureus by broth microdilution technique. It counts as functional, organism-based. The settings on record: Staphylococcus aureus; for IC50: read-out: IC50. In general terms: Broth dilution looks for growth in wells or tubes with falling amounts of substance.
Experiment [3] deals with Aspergillus fumigatus. Briefly: Antifungal activity against Aspergillus fumigatus by broth microdilution technique. In kind it is functional, organism-based.
For experiment [4], the system named is Enterococcus faecalis. Briefly: Antibacterial activity against Streptococcus faecalis by broth microdilution technique. It counts as functional, organism-based. The settings on record: Enterococcus faecalis; for IC50: read-out: IC50.
The test system of experiment [5] is Candida albicans. Briefly: Antifungal activity against Candida albicans by broth microdilution technique. In kind it is functional, organism-based.
The subject of experiment [6] is Candida parapsilosis. Briefly: Antifungal activity against Candida parapsilosis ATCC 22019 by broth microdilution technique. In kind it is functional, organism-based. The settings on record: Lodderomyces parapsilosis.
Experiment [7] concerns Pseudomonas aeruginosa. Briefly: Antibacterial activity against Pseudomonas aeruginosa by broth microdilution technique. The conditions noted are these: Pseudomonas aeruginosa; for IC50: read-out: IC50. It counts as functional, organism-based.
Experiment [8] concerns Klebsiella pneumoniae. Briefly: Antibacterial activity against Klebsiella pneumoniae by broth microdilution technique. In kind it is functional, organism-based. The conditions noted are these: Klebsiella pneumoniae; for IC50: read-out: IC50.
Experiment [9] has as its system Trichophyton benhamiae. Briefly: Antifungal activity against Trichophyton mentagrophytes by broth microdilution technique. It counts as functional, organism-based, Arthroderma benhamiae.
Experiment [10] deals with Cryptococcus neoformans. Briefly: Antifungal activity against Cryptococcus neoformans by broth microdilution technique. It counts as functional, organism-based.
The subject of experiment [11] is Escherichia coli. Briefly: Antibacterial activity against Escherichia coli by broth microdilution technique. It counts as functional, organism-based. The settings on record: Escherichia coli; for IC50: read-out: IC50.

≈ marks a conversion by molar mass, not a printed value. Bounds are passed on as bounds.

For `CCOC(=O)C(C)SC1=C(NCCc2ccc(OC)c(OC)c2)C(=O)c2ccccc2C1=O` (centres undefined), the IC50 in experiment [1] was more than 50 µg/mL; in experiment [2], 9.52 µg/mL (≈ 20.3 µM); in [3], more than 50 µg/mL; in experiment [4] it was more than 50 µg/mL; in experiment [5] it was more than 50 µg/mL; in [6], more than 50 µg/mL. Moreover, the IC50 in experiment [7] was 46.2 µg/mL (≈ 98.5 µM); in [8], 42.5 µg/mL (≈ 90.6 µM); in experiment [9] it was 14 µg/mL (≈ 29.8 µM); in [10], more than 50 µg/mL; in [11], 44.3 µg/mL (≈ 94.3 µM). Also, the MIC in experiment [1] is more than 50 µg/mL; in experiment [2], 12.5 µg/mL (≈ 26.6 µM); in experiment [3], more than 50 µg/mL; in experiment [4], more than 50 µg/mL; in experiment [5], more than 50 µg/mL; in experiment [6], more than 50 µg/mL. In addition, the MIC in [7] was 50 µg/mL (≈ 106 µM); in experiment [8], 50 µg/mL (≈ 106 µM); in [9], 25 µg/mL (≈ 53.2 µM); in experiment [10], more than 50 µg/mL; in experiment [11] it was 50 µg/mL (≈ 106 µM).

Take `CCOC(=O)CSC1=C(Cl)C(=O)c2ccccc2C1=O`: the IC50 was 18.7 µg/mL (≈ 60.3 µM) in experiment [1]; 6.98 µg/mL (≈ 22.5 µM) in experiment [2]; more than 50 µg/mL in [3]; 9.24 µg/mL (≈ 29.7 µM) in [4]; more than 50 µg/mL in [5]; more than 50 µg/mL in experiment [6]. Further, the IC50 in experiment [7] is 44.4 µg/mL (≈ 143 µM); in experiment [8], 33.2 µg/mL (≈ 107 µM); in [9], more than 50 µg/mL; in [10] it was 10.9 µg/mL (≈ 35.2 µM); in experiment [11] it was 8.56 µg/mL (≈ 27.5 µM). For the same compound, the minimal inhibitory concentration (MIC) in [1] was 25 µg/mL (≈ 80.4 µM); in experiment [2], 12.5 µg/mL (≈ 40.2 µM); in experiment [3], more than 50 µg/mL; in experiment [4], 12.5 µg/mL (≈ 40.2 µM); in [5], more than 50 µg/mL; in [6], more than 50 µg/mL. In addition, the MIC in experiment [7] is 50 µg/mL (≈ 161 µM); in experiment [8] it was 50 µg/mL (≈ 161 µM); in [9], more than 50 µg/mL; in experiment [10] it was 12.5 µg/mL (≈ 40.2 µM); in [11], 12.5 µg/mL (≈ 40.2 µM).

With `CCOC(=O)C(C)SC1=C(Cl)C(=O)c2ccccc2C1=O` (centres undefined), the IC50 in [1] is 22.7 µg/mL (≈ 69.8 µM); in experiment [2], 7.95 µg/mL (≈ 24.5 µM); in [3] it was more than 50 µg/mL; in experiment [4], 9.52 µg/mL (≈ 29.3 µM); in [5], more than 50 µg/mL; in experiment [6], more than 50 µg/mL. Besides, the IC50 in [7] was 48.3 µg/mL (≈ 149 µM); in experiment [8] it was 28.3 µg/mL (≈ 87.3 µM); in experiment [9], more than 50 µg/mL; in [10] it was 11.5 µg/mL (≈ 35.3 µM); in experiment [11] it was 6.34 µg/mL (≈ 19.5 µM). In addition, the minimum inhibitory concentration (MIC) in experiment [1] was 25 µg/mL (≈ 77 µM); in experiment [2] it was 12.5 µg/mL (≈ 38.5 µM); in experiment [3], more than 50 µg/mL; in experiment [4], 12.5 µg/mL (≈ 38.5 µM); in experiment [5] it was more than 50 µg/mL; in [6] it was more than 50 µg/mL. Moreover, the minimal inhibitory concentration (MIC) in [7] is 50 µg/mL (≈ 154 µM); in [8], 50 µg/mL (≈ 154 µM); in [9], more than 50 µg/mL; in experiment [10], 12.5 µg/mL (≈ 38.5 µM); in experiment [11] it was 12.5 µg/mL (≈ 38.5 µM).

For the compound `CCOC(=O)C(C)SC1=C(NC(C)(C)C)C(=O)c2ccccc2C1=O` (centres undefined), the IC50 in [1] is 10.9 µg/mL (≈ 30.2 µM); in [2], 3.98 µg/mL (≈ 11 µM); in experiment [3] it was 21.8 µg/mL (≈ 60.4 µM); in [4] it was 5.62 µg/mL (≈ 15.5 µM); in experiment [5], 38.3 µg/mL (≈ 106 µM); in [6], 22.2 µg/mL (≈ 61.4 µM). Besides, the IC50 in experiment [7] amounted to 5.32 µg/mL (≈ 14.7 µM); in experiment [8], 4.82 µg/mL (≈ 13.3 µM); in experiment [9] it was 2.8 µg/mL (≈ 7.75 µM); in experiment [10], 10.3 µg/mL (≈ 28.5 µM); in experiment [11] it was 4.38 µg/mL (≈ 12.1 µM). The MIC stood at 12.5 µg/mL (≈ 34.6 µM) in experiment [1]; 6.25 µg/mL (≈ 17.3 µM) in experiment [2]; 25 µg/mL (≈ 69.2 µM) in [3]; 6.25 µg/mL (≈ 17.3 µM) in experiment [4]; 50 µg/mL (≈ 138 µM) in experiment [5]; 25 µg/mL (≈ 69.2 µM) in [6]. The MIC in [7] is 6.25 µg/mL (≈ 17.3 µM); in experiment [8] it was 6.25 µg/mL (≈ 17.3 µM); in experiment [9], 3.12 µg/mL (≈ 8.63 µM); in experiment [10], 12.5 µg/mL (≈ 34.6 µM); in experiment [11], 6.25 µg/mL (≈ 17.3 µM).

In the case of `Cc1sc2c(=O)c3ccccc3c(=O)c=2n(C)c1O`, the IC50 in [1] was 2.84 µg/mL (≈ 10.4 µM); in experiment [2], 1.92 µg/mL (≈ 7.02 µM); in experiment [3] it was 3.98 µg/mL (≈ 14.6 µM); in [4], 2.58 µg/mL (≈ 9.44 µM); in experiment [5], 5.3 µg/mL (≈ 19.4 µM); in [6], 10.4 µg/mL (≈ 38 µM). In addition, the IC50 in experiment [7] was determined as 49.3 µg/mL (≈ 180 µM); in [8], 1.98 µg/mL (≈ 7.24 µM); in experiment [9] it was 0.9 µg/mL (≈ 3.29 µM); in experiment [10], 1.54 µg/mL (≈ 5.63 µM); in experiment [11] it was 0.96 µg/mL (≈ 3.51 µM). The MIC amounted to 3.12 µg/mL (≈ 11.4 µM) in experiment [1]; 3.12 µg/mL (≈ 11.4 µM) in experiment [2]; 6.25 µg/mL (≈ 22.9 µM) in [3]; 3.12 µg/mL (≈ 11.4 µM) in [4]; 6.25 µg/mL (≈ 22.9 µM) in experiment [5]; 12.5 µg/mL (≈ 45.7 µM) in experiment [6]. Also, the MIC in experiment [7] was 50 µg/mL (≈ 183 µM); in experiment [8], 3.12 µg/mL (≈ 11.4 µM); in experiment [9], 1.56 µg/mL (≈ 5.71 µM); in experiment [10], 3.12 µg/mL (≈ 11.4 µM); in [11], 1.56 µg/mL (≈ 5.71 µM).

Take `CCOC(=O)C(C)SC1=C(NN)C(=O)c2ccccc2C1=O` (centres undefined): the IC50 in [1] came to 22 µg/mL (≈ 68.7 µM); in experiment [2], 5.65 µg/mL (≈ 17.6 µM); in experiment [3] it was 22.4 µg/mL (≈ 69.8 µM); in experiment [4], 22.3 µg/mL (≈ 69.5 µM); in [5], 24.2 µg/mL (≈ 75.7 µM); in experiment [6], 17.3 µg/mL (≈ 54.1 µM). In addition, the IC50 in experiment [7] came to 4.62 µg/mL (≈ 14.4 µM); in [8] it was 5.28 µg/mL (≈ 16.5 µM); in experiment [9] it was 4.5 µg/mL (≈ 14 µM); in experiment [10], 13.3 µg/mL (≈ 41.6 µM); in experiment [11] it was 5.2 µg/mL (≈ 16.2 µM). Also, the MIC in [1] was 25 µg/mL (≈ 78 µM); in experiment [2] it was 6.25 µg/mL (≈ 19.5 µM); in experiment [3], 25 µg/mL (≈ 78 µM); in [4], 25 µg/mL (≈ 78 µM); in experiment [5] it was 50 µg/mL (≈ 156 µM); in [6], 25 µg/mL (≈ 78 µM). The MIC stood at 6.25 µg/mL (≈ 19.5 µM) in [7]; 6.25 µg/mL (≈ 19.5 µM) in experiment [8]; 6.25 µg/mL (≈ 19.5 µM) in [9]; 25 µg/mL (≈ 78 µM) in experiment [10]; 6.25 µg/mL (≈ 19.5 µM) in experiment [11].

Consider `CCOC(=O)CSC1=C(Nc2ccccc2)C(=O)c2ccccc2C1=O`, for which the IC50 in [1] was 46.7 µg/mL (≈ 127 µM); in experiment [2], 11.8 µg/mL (≈ 32.2 µM); in experiment [3], more than 50 µg/mL; in experiment [4] it was 18.6 µg/mL (≈ 50.7 µM); in experiment [5], more than 50 µg/mL; in experiment [6], more than 50 µg/mL. Moreover, the IC50 was 22.8 µg/mL (≈ 62.1 µM) in experiment [7]; 9.24 µg/mL (≈ 25.1 µM) in experiment [8]; 23 µg/mL (≈ 62.6 µM) in experiment [9]; more than 50 µg/mL in [10]; 4.32 µg/mL (≈ 11.8 µM) in experiment [11]. The MIC in experiment [1] is 50 µg/mL (≈ 136 µM); in experiment [2] it was 12.5 µg/mL (≈ 34 µM); in experiment [3], more than 50 µg/mL; in [4], 25 µg/mL (≈ 68 µM); in experiment [5], more than 50 µg/mL; in [6], more than 50 µg/mL. Besides, the MIC in experiment [7] was 25 µg/mL (≈ 68 µM); in [8], 12.5 µg/mL (≈ 34 µM); in [9], 25 µg/mL (≈ 68 µM); in [10] it was more than 50 µg/mL; in experiment [11] it was 6.25 µg/mL (≈ 17 µM).

Source of the values: ChEMBL document CHEMBL1139716, “Naphtho[2,3-b][1,4]-thiazine-5,10-diones and 3-substituted-1,4-dioxo-1,4-dihydronaphthalen-2-yl-thioalkanoate derivatives: synthesis and biological evaluation as potential antibacterial and antifungal agents” (Bioorg Med Chem Lett, 2006).
